Key:
Format in all cases: in vivo
[1] = test system: Russian thistle (Salsola iberica); experiment: Test D pre-/postemergence: Russian thistle
Text: (§1) Seeds of plant species selected from bluegrass (annual bluegrass, Poa annua), blackgrass (Alopecurus myosuroides), canarygrass (Phalaris minor), chickweed (common chickweed, Stellaria media), galium (catchweed bedstraw, Galium aparine), bromegrass, downy (downy bromegrass, Bromus tectorum), field poppy (Papaver rhoeas), field violet (Viola arvensis), foxtail, green (green foxtail, Setaria viridis), deadnettle (henbit deadnettle, Lamium amplexicaule), ryegrass, Italian (Italian ryegrass, Lolium multiflorum), kochia (Kochia scoparia), lambsquarters (Chenopodium album), oilseed rape (Brassica napus), pigweed (Amaranthus retroflexus), Russian thistle (Salsola iberica), chamomile (scentless chamomile, Matricaria inodora), speedwell (bird's-eye speedwell, Veronica persica), barley, spring (spring barley, Hordeum vulgare), wheat, spring (spring wheat, Triticum aestivum), buckwheat, wild (wild buckwheat, Polygonum convolvulus), mustard, wild (wild mustard, Sinapis arvensis), oat, wild (wild oat, Avena fatua), radish, wild (wild radish, Raphanus raphanistrum), windgrass (Apera spica-venti), barley, winter (winter barley, Hordeum vulgare), and wheat, winter (winter wheat, Triticum aestivum) were planted into a silt loam soil and treated preemergence with test chemicals formulated in a non-phytotoxic solvent mixture which included a surfactant. At the same time, these same crop and weed species were planted in pots containing the planting medium comprising spaghnum peat moss, vermiculite, wetting agent and starter nutrients and treated with postemergence applications of the test chemicals formulated in the same manner. Plants ranged in height from 2 to 18 cm (1- to 4-leaf stage).
(§2) Treated plants and controls were maintained in a controlled growth environment for 14 to 21 days after which time all species were compared to controls and visually evaluated. Plant response ratings, summarized in Table D, are based on a scale of 0 to 100 where 0 is no effect and 100 is complete control. A dash (-) response means no test result.

[2] = test system: chickweed (common chickweed, Stellaria media); experiment: Test D pre-/postemergence: chickweed
Text: as §1, §2

[3] = test system: buckwheat, wild (wild buckwheat, Polygonum convolvulus); experiment: Test D pre-/postemergence: buckwheat, wild
Text: as §1, §2

[4] = Postemergence, 31 g ai/ha, scale 0 to 100 (0 no effect, 100 complete control)
[5] = Postemergence, 62 g ai/ha, scale 0 to 100 (0 no effect, 100 complete control)
[6] = Postemergence, 125 g ai/ha, scale 0 to 100, 0 no effect, 100 complete control
[7] = Postemergence, 250 g ai/ha, scale 0 to 100 (0 no effect, 100 complete control)
[8] = Postemergence, 16 g ai/ha, scale 0 to 100
[9] = Preemergence, 31 g ai/ha, scale 0 to 100, 0 no effect, 100 complete control
[10] = Preemergence, 62 g ai/ha, scale 0 to 100
[11] = Preemergence, 125 g ai/ha, scale 0 to 100
[12] = Preemergence, 250 g ai/ha, scale 0 to 100
[13] = Preemergence, 16 g ai/ha, scale 0 to 100, 0 no effect, 100 complete control

| SMILES | Plant response rating: Russian Thistle [1, 4] | Plant response rating: Russian Thistle [1, 5] | Plant response rating: Russian Thistle [1, 6] | Plant response rating: Russian Thistle [1, 7] | Plant response rating, Russian Thistle [1, 8] | Plant response rating: Chickweed [2, 4] | Plant response rating: Chickweed [2, 5] | Plant response rating: Chickweed [2, 6] | Plant response rating: Chickweed [2, 7] | Plant response rating, Chickweed [2, 8] | Plant response rating: Buckwheat, Wild [3, 4] | Plant response rating: Buckwheat, Wild [3, 5] | Plant response rating: Buckwheat, Wild [3, 6] | Plant response rating: Buckwheat, Wild [3, 7] | Plant response rating, Buckwheat, Wild [3, 8] | Plant response rating, Chickweed [2, 9] | Plant response rating, Chickweed [2, 10] | Plant response rating, Chickweed [2, 11] | Plant response rating, Buckwheat, Wild [3, 10] | Plant response rating, Buckwheat, Wild [3, 11] | other results |
| --- | --- | --- | --- | --- | --- | --- | --- | --- | --- | --- | --- | --- | --- | --- | --- | --- | --- | --- | --- | --- | --- |
| Cc1nn(-c2ccc(C(F)(F)F)cn2)nc1Oc1ccnc(C(F)(F)F)c1 [Compound 23] | 50 | 70 | 90 | 100 | 50 | 10 | 15 | 30 | 90 | 5 | 25 | 35 | 40 | 75 | 20 |  |  |  |  |  |  |
| FC(F)(F)COc1nn(-c2ccc(C(F)(F)F)cc2)nc1Cc1ccnc(C(F)(F)F)c1 [Compound 14, 4-[[5-(2,2,2-trifluoroethoxy)-2-[4-(trifluoromethyl)phenyl]-2H-1,2,3-triazol-4-yl]methyl]-2-(trifluoromethyl)pyridine] | 0 | 75 | 100 | 100 |  | 50 | 80 | 90 | 98 |  | 0 | 40 | 60 | 100 |  | 75 | 100 | 100 | 30 | 35 | Plant response rating, Russian Thistle [1, 9]: 0; Plant response rating, Russian Thistle [1, 10]: 0; Plant response rating, Russian Thistle [1, 11]: 10; Plant response rating, Russian Thistle [1, 12]: 40; Plant response rating, Chickweed [2, 12]: 100; Plant response rating, Buckwheat, Wild [3, 9]: 0; Plant response rating, Buckwheat, Wild [3, 12]: 40 |
| COc1nn(-c2ccc(C(F)(F)F)cc2)nc1Cc1ccnc(C(F)(F)F)c1 [Compound 15, 4-[[5-methoxy-2-[4-(trifluoromethyl)phenyl]-2H-1,2,3-triazol-4-yl]methyl]-2-(trifluoromethyl)pyridine] | 100 | 100 | 100 | 100 | 60 | 100 | 100 | 100 | 100 | 40 | 30 | 30 | 70 | 100 | 0 | 100 | 100 | 100 | 100 | 100 | Plant response rating, Russian Thistle [1, 9]: 0; Plant response rating, Russian Thistle [1, 10]: 0; Plant response rating, Russian Thistle [1, 11]: 80; Plant response rating, Russian Thistle [1, 12]: 80; Plant response rating, Chickweed [2, 12]: 100; Plant response rating, Buckwheat, Wild [3, 9]: 0; Plant response rating, Buckwheat, Wild [3, 12]: 100 |
| COc1nn(-c2ccc(C(F)(F)F)cc2)nc1Cc1ccnc(C(F)F)c1 [Compound 138] | 75 | 90 | 95 | 100 | 50 | 60 | 85 | 95 | 100 | 60 | 40 | 50 | 80 | 80 | 40 |  |  |  |  |  |  |
| Cc1nn(-c2ccc(C(F)(F)F)cc2)nc1Oc1ccnc(C(F)(F)F)c1 [Compound 120] | 95 | 98 | 100 | 100 | 95 | 85 | 98 | 100 | 100 | 75 | 75 | 85 | 95 | 98 | 50 | 90 | 90 | 100 | 10 | 70 | Plant response rating, Russian Thistle [1, 13]: 100; Plant response rating, Russian Thistle [1, 9]: 100; Plant response rating, Russian Thistle [1, 10]: 100; Plant response rating, Russian Thistle [1, 11]: 100; Plant response rating, Russian Thistle [1, 12]: 100; Plant response rating, Chickweed [2, 13]: 20; Plant response rating, Chickweed [2, 12]: 100; Plant response rating, Buckwheat, Wild [3, 12]: 100 |
| Cc1nn(-c2ccc(F)c(C(F)(F)F)c2)nc1Cc1ccnc(C(F)(F)F)c1 [Compound 156] | 85 | 90 | 80 |  | 60 | 75 | 90 | 95 |  | 60 | 75 | 80 | 85 |  | 70 | 100 | 100 | 100 | 65 | 100 | Plant response rating, Chickweed [2, 13]: 50; Plant response rating, Buckwheat, Wild [3, 13]: 0; Plant response rating, Buckwheat, Wild [3, 9]: 50 |
| Cc1nn(-c2ccc(C(F)(F)F)cn2)nc1Cc1cccc(C(F)(F)F)c1 [Compound 106] | 25 | 30 | 60 | 100 | 20 | 90 | 90 | 90 | 90 | 20 | 0 | 10 | 10 | 100 | 0 | 100 | 100 | 100 | 100 | 100 | Plant response rating, Russian Thistle [1, 9]: 0; Plant response rating, Russian Thistle [1, 10]: 0; Plant response rating, Russian Thistle [1, 11]: 0; Plant response rating, Russian Thistle [1, 12]: 0; Plant response rating, Chickweed [2, 12]: 100; Plant response rating, Buckwheat, Wild [3, 9]: 50; Plant response rating, Buckwheat, Wild [3, 12]: 100 |

Reference: patent publication US9302999B2, “Substituted triazoles as herbicides” (E. I. DU PONT DE NEMOURS AND COMPANY, priority 2012, dated 2016)
